These results are taken from PubChem BioAssay AID330 (DTP/NCI, 2004).

Where “and” joins values, the source holds several entries; their conditions need not be identical. Equal entries are not always repeated. Toxic doses and inconclusive results are not listed.

In the test the test system is P388 leukemia ip, CD2F1 mice, survival T/C. The test is described as follows: NCI In Vivo Anticancer Drug Screen. Data for tumor model P388 Leukemia (intraperitoneal) in CD2F1 (CDF1) mice. To be noted: endpoint: median survival time, higher = longer survival. Put shortly: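 Mice carrying the transplanted tumor received test compound or vehicle. Survival was recorded in each group, and the value is the treated-group measurement divided by that of the vehicle-treated control group.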

Where [1] appears, read: dose: 60.0 mg/kg/injection, schedule: Q01DX005 (ip), vehicle: saline with Tween-80.
The mark [2] stands for this setting: dose: 120.0 mg/kg/injection, schedule: Q01DX005 (ip), vehicle: saline with Tween-80.
[3] abbreviates: dose: 240.0 mg/kg/injection, schedule: Q01DX005 (ip), vehicle: saline with Tween-80.
Where [4] appears, read: dose: 100.0 mg/kg/injection, schedule: Q04DX003 (ip), vehicle: saline.
The mark [5] stands for this setting: dose: 200.0 mg/kg/injection, schedule: Q04DX003 (ip), vehicle: saline.
[6] abbreviates: dose: 400.0 mg/kg/injection, schedule: Q04DX003 (ip), vehicle: saline.
The mark [7] stands for this setting: dose: 50.0 mg/kg/injection, schedule: Q01DX009 (ip), vehicle: saline with Tween-80.
[8] abbreviates: dose: 100.0 mg/kg/injection, schedule: Q01DX009 (ip), vehicle: saline with Tween-80.
The mark [9] stands for this setting: dose: 200.0 mg/kg/injection, schedule: Q01DX009 (ip), vehicle: saline with Tween-80.
[10] abbreviates: dose: 50.0 mg/kg/injection, schedule: Q01DX009 (ip), vehicle: Klucel (hydroxypropylcellulose) (HPC).
Setting [11] is: dose: 100.0 mg/kg/injection, schedule: Q01DX009 (ip), vehicle: Klucel (hydroxypropylcellulose) (HPC).
[12] abbreviates: dose: 200.0 mg/kg/injection, schedule: Q01DX009 (ip), vehicle: Klucel (hydroxypropylcellulose) (HPC).
The mark [13] stands for this setting: dose: 25.0 mg/kg/injection, schedule: Q01DX009 (ip), vehicle: saline with Tween-80.

`c1ccc(C(Sc2c[nH]c3ccccc23)(c2ccccc2)c2ccccc2)cc1` (tested in a mixture with another compound): the T/C is, setting by setting: (dose: 100.0 mg/kg/injection, schedule: Q01DX001 (ip), vehicle: saline with Tween-80) 100 % of control; (dose: 200.0 mg/kg/injection, schedule: Q01DX001 (ip), vehicle: saline with Tween-80) 90 % of control; (dose: 400.0 mg/kg/injection, schedule: Q01DX001 (ip), vehicle: saline with Tween-80) 92 % of control.

For `CCOC(=O)/C(C#N)=C(\CC)c1cc(Cl)cc(Cl)c1O`, the T/C is 100 % of control under setting [1], 90 % of control under setting [2] and 96 % of control under setting [3].

Consider `CCOC(=O)CS(=O)(=O)CCCCCCCCCCS(=O)(=O)CC(=O)OCC`, for which the T/C by setting is: (dose: 50.0 mg/kg/injection, schedule: Q01DX009 (ip), vehicle: saline) 102 % of control; (dose: 100.0 mg/kg/injection, schedule: Q01DX009 (ip), vehicle: saline) 99 % of control; (dose: 200.0 mg/kg/injection, schedule: Q01DX009 (ip), vehicle: saline) 89 % of control.

With `COc1cc2c(cc1O)-c1[nH]ncc1CCC2`, the T/C by setting is: under setting [4], 101 % of control; under setting [5], 97 % of control; under setting [6], 102 % of control.

As for `COc1cc2c(cc1-c1coc3cc4occc4cc3c1=O)OCO2`, the T/C runs as follows: (dose: 8.75 mg/kg/injection, schedule: Q01DX005 (ip), vehicle: saline with Tween-80) 87 % of control; (dose: 35.0 mg/kg/injection, schedule: Q01DX005 (ip), vehicle: saline with Tween-80) 87 % of control; (dose: 70.0 mg/kg/injection, schedule: Q01DX005 (ip), vehicle: saline with Tween-80) 89 % of control; (dose: 140.0 mg/kg/injection, schedule: Q01DX005 (ip), vehicle: saline with Tween-80) 99 % of control.

In the case of `CCOc1cc2c(Cl)ncnc2c(OCC)c1OCC`, the T/C under setting [7] is 105 % of control, the T/C under setting [8] was 91 % of control and the T/C under setting [9] was 106 % of control.

As for `C(#CP(C#Cc1ccccc1)C#Cc1ccccc1)c1ccccc1`, the T/C by setting is: under setting [7], 103 % of control; under setting [8], 92 % of control; under setting [9], 94 % of control; (dose: 400.0 mg/kg/injection, schedule: Q01DX009 (ip), vehicle: saline with Tween-80) 86 % of control.

For the molecule `NC(=O)CCSC1=CC(=O)c2ccccc2C1=O`, the T/C runs as follows: (dose: 3.13 mg/kg/injection, schedule: Q04DX003 (ip), vehicle: saline with Tween-80) 103 % of control; (dose: 6.25 mg/kg/injection, schedule: Q04DX003 (ip), vehicle: saline with Tween-80) 110 % of control; (dose: 12.5 mg/kg/injection, schedule: Q04DX003 (ip), vehicle: saline with Tween-80) 103 % of control and 110 % of control.

`NC(=O)NC1OC(CO)C(O)C(O)C1O` (configuration not stated): the T/C runs as follows: under setting [4], 95 % of control; under setting [5], 95 % of control; under setting [6], 100 % of control.

Consider `N#CC(C(=O)CCC(=O)C(C#N)c1c(Cl)cccc1Cl)c1c(Cl)cccc1Cl` (configuration not stated), for which the T/C was 100 % of control (dose: 50.0 mg/kg/injection, schedule: Q01DX005 (ip), vehicle: saline with Tween-80); 98 % of control (dose: 100.0 mg/kg/injection, schedule: Q01DX005 (ip), vehicle: saline with Tween-80); 98 % of control (dose: 200.0 mg/kg/injection, schedule: Q01DX005 (ip), vehicle: saline with Tween-80).

In the case of `O=C(O)c1ccccc1C(=O)O.[Cu+2].[NH-]CC[NH-]`, the T/C was 100 % of control (dose: 1.25 mg/kg/injection, schedule: Q04DX002 (ip), vehicle: saline with Tween-80); 99 % of control (dose: 2.5 mg/kg/injection, schedule: Q04DX002 (ip), vehicle: saline with Tween-80); 98 % of control (dose: 5.0 mg/kg/injection, schedule: Q04DX002 (ip), vehicle: saline with Tween-80).

For `CCOC1(OCC)C(=O)N(c2ccc(Cl)c(Cl)c2)C(=O)N1c1ccc(Cl)c(Cl)c1`, the T/C runs as follows: under setting [4], 95 % of control; under setting [5], 92 % of control; under setting [6], 89 % of control.

For the molecule `CC1CN2C(=O)C1(c1ccccc1)C(=O)NC2=S` (configuration not stated), the T/C is, setting by setting: under setting [10], 98 % of control; under setting [11], 107 % of control; under setting [12], 100 % of control.

In the case of `O=C1C2=C(Nc3cc([N+](=O)[O-])ccc3N2)OC1c1c[nH]c2ccc(COc3ccccc3)cc12` (configuration not stated), the T/C was 93 % of control under setting [1] and 94 % of control under setting [2].

As for `CCc1ccc(N=Cc2ccc(OC(=O)c3ccc(OC)cc3)c(OC)c2)cc1`, the T/C is 96 % of control under setting [1], 94 % of control under setting [2] and 92 % of control under setting [3].

Regarding `O=C(O)C(=O)O.[NH-]C1CCCC1[NH-].[Pt+2]` (configuration not stated), the T/C by setting is: (dose: 12.5 mg/kg/injection, schedule: Q04DX002 (ip), vehicle: saline with Tween-80) 166 % of control; (dose: 12.5 mg/kg/injection, schedule: Q04DX002 (ip), vehicle: saline) 176 % of control.

With `COC(=O)C(C)CN1CCCC1` (configuration not stated), the T/C is, setting by setting: (dose: 12.5 mg/kg/injection, schedule: Q04DX003 (ip), vehicle: saline) 100 % of control; (dose: 25.0 mg/kg/injection, schedule: Q04DX003 (ip), vehicle: saline) 100 % of control; (dose: 50.0 mg/kg/injection, schedule: Q04DX003 (ip), vehicle: saline) 100 % of control.

Regarding `O=C1OCCOCCOCCOCCOCCOCCOC(=O)c2cccc1n2`, the T/C was 100 % of control (dose: 100.0 mg/kg/injection, schedule: Q04DX003 (ip), vehicle: Klucel (hydroxypropylcellulose) (HPC)); 100 % of control (dose: 200.0 mg/kg/injection, schedule: Q04DX003 (ip), vehicle: Klucel (hydroxypropylcellulose) (HPC)); 100 % of control (dose: 400.0 mg/kg/injection, schedule: Q04DX003 (ip), vehicle: Klucel (hydroxypropylcellulose) (HPC)).

For the molecule `CC(C)=CCC/C(C)=C\CCl`, the T/C under setting [13] was 107 % of control, the T/C under setting [7] was 98 % of control, the T/C under setting [8] is 87 % of control and the T/C under setting [9] was 90 % of control.

Turning to `CC(=O)Oc1cc2c(c(OC(C)=O)n1)C(C)N(Cc1ccccc1)C2=O` (configuration not stated), the T/C was 106 % of control under setting [10], 106 % of control under setting [11] and 115 % of control under setting [12].

As to `CS(=O)(=O)c1ccc(C[N+]23CN4CN(CN(C4)C2)C3)cc1`, the T/C by setting is: (dose: 60.0 mg/kg/injection, schedule: Q01DX005 (ip), vehicle: Klucel (hydroxypropylcellulose) (HPC)) 98 % of control; (dose: 120.0 mg/kg/injection, schedule: Q01DX005 (ip), vehicle: Klucel (hydroxypropylcellulose) (HPC)) 99 % of control; (dose: 240.0 mg/kg/injection, schedule: Q01DX005 (ip), vehicle: Klucel (hydroxypropylcellulose) (HPC)) 98 % of control.

Turning to `CCOc1c(N=Nc2ccccc2C)c(C)nn1C(N)=S`, the T/C is, setting by setting: (dose: 60.0 mg/kg/injection, schedule: Q01DX005 (ip), vehicle: Klucel + Tween-80) 100 % of control; (dose: 120.0 mg/kg/injection, schedule: Q01DX005 (ip), vehicle: Klucel + Tween-80) 97 % of control; (dose: 240.0 mg/kg/injection, schedule: Q01DX005 (ip), vehicle: Klucel + Tween-80) 100 % of control.

As for `COC1=C(OC)C(=O)C(C/C=C(\C)CC/C=C(\C)CC/C=C(\C)CC/C=C(\C)CC/C=C(\C)CC/C=C(\C)CC/C=C(\C)CC/C=C(\C)CC/C=C(\C)CCC=C(C)C)=C(C)C1=O`, the T/C was 90 % of control and 96 % of control (dose: 3.13 mg/kg/injection, schedule: Q01DX009 (ip), vehicle: saline with Tween-80); 86 % of control and 93 % of control (dose: 6.25 mg/kg/injection, schedule: Q01DX009 (ip), vehicle: saline with Tween-80); 96 % of control (dose: 12.5 mg/kg/injection, schedule: Q01DX009 (ip), vehicle: saline with Tween-80); 86 % of control and 87 % of control under setting [13]; 90 % of control under setting [7]; 86 % of control and 87 % of control under setting [8].

As to `Cn1c(=O)ccc2ccc(N(CCO)CCO)nc21`, the T/C is 98 % of control (dose: 50.0 mg/kg/injection, schedule: Q04DX003 (ip), vehicle: saline with Tween-80); 94 % of control (dose: 100.0 mg/kg/injection, schedule: Q04DX003 (ip), vehicle: saline with Tween-80); 103 % of control (dose: 200.0 mg/kg/injection, schedule: Q04DX003 (ip), vehicle: saline with Tween-80).

Consider `CCOC(=O)C1(Br)CCCCC1Br` (configuration not stated), for which the T/C is 108 % of control and 111 % of control under setting [13]; 115 % of control and 118 % of control under setting [7]; 113 % of control and 118 % of control and 119 % of control under setting [8].

Regarding `CC(=O)C(C#N)c1ccccn1` (configuration not stated), the T/C is, setting by setting: under setting [7], 106 % of control; under setting [8], 105 % of control; under setting [9], 100 % of control.
